Where two headings read alike, the source gives them in different places.
Columns and labels:
Experiment in all cases: Test agar plates (disc diffusion), diameter of inhibition area
Type in all cases: cell-based
[1] = test system: Bacillus subtilis DSM10; conditions: Bacillus subtilis, DSM10, 18 h, read-out: diameter of inhibition, Bacillus subtilis DSM10
Procedure: (§1) The dry compounds were dissolved in DMSO (1 mg/ml) and the so obtained stock solution was diluted with sterilized Millipore water 1:10 and 1:100
(§2) 20 μl of cryo stock of each strain were inoculated to 20 ml of Mueller-Hinton medium and grown overnight at 30° C. or 37° C. on a vertical shaker with 160 rpm. The inoculum for the test was adjusted by the 0.5 McFarland Standard (OD625 from 0.08 to 0.1)
Bacillus subtilis DSM10 [gram. Pos.] Medium: MHB/30° C.
(§3) Every plate is prepared by pouring 10 ml Mueller-Hinton agar into standard petri dishes (diam 94 mm). The so obtained Mueller-Hinton plates are overlayed with 4 ml Mueller-Hinton soft agar containing 100 μl suspension of the test strain.
(§4) After the soft agar turned solid, sterile susceptibility test discs were circular placed on the agar and on every test disc 10 μl compound was added. Each concentration is tested in triplicate. The agar dishes were incubated for 18 hours at a temperature of 30° C. or 37° C. Results are obtained by measuring the diameter of inhibition area around each test disc.

[2] = test system: Escherichia coli albi-res (Montpellier); conditions: 18 h, read-out: diameter of inhibition, Escherichia coli albi-res (Montpellier)
Procedure: as §1, §2
Escherichia coli albi-res (Montpellier) [gram. Neg.] Medium: MHB/37° C.
as §3, §4

[3] = test system: Escherichia coli DH5α; conditions: 18 h, read-out: diameter of inhibition, Escherichia coli DH5α
Procedure: as §1, §2
Escherichia coli DH5α [gram. Neg.] Medium: MHB/37° C.
as §3, §4

[4] = test system: Micrococcus luteus DSM1790; conditions: Micrococcus luteus, DSM1790, 18 h, read-out: diameter of inhibition, Micrococcus luteus DSM1790
Procedure: as §1, §2
Micrococcus luteus DSM1790 [gram. Pos.] Medium: MHB/37° C.
as §3, §4

[5] = test system: Pseudomonas aeruginosa DSM1117; conditions: DSM1117, 18 h, read-out: diameter of inhibition, Pseudomonas aeruginosa DSM1117
Procedure: as §1, §2
Pseudomonas aeruginosa DSM1117 [gram. Neg.] Medium: MHB/37° C.
as §3, §4

[6] = test system: Staphylococcus aureus DSM 2569; conditions: DSM2569, 18 h, test agar plates, active substance 1 mg/ml, "more than 1 cm and more than 2 cm" [sic], read-out: diameter of inhibition, Staphylococcus aureus DSM 2569
Procedure: as §1, §2
Staphylococcus aureus DSM 2569 [gram. Pos.] Medium: MHB/37° C.
as §3, §4

[7] = test agar plates, active substance 1 mg/ml, more than 1 cm or more than 3.9 cm [sic]
[8] = test agar plates, active substance 1 mg/ml, more than 1 cm or more than 2 cm
[9] = test agar plates, active substance 1 mg/ml, "more than 1 cm and more than 2 cm" [sic]

Measured: zone of inhibition at 1000 µg/mL

COc1c(NC(=O)c2ccc(NC(=O)c3ccc(NC(=O)C(CC#N)NC(=O)c4ccc(NC(=O)C5CCCC5)cc4)cc3)c(OC)c2O)ccc(C(=O)O)c1O (stereo not drawn) [Compound 41]
> 10 mm: [1]; [7] | [2]; [8]

COc1c(NC(=O)c2ccc(NC(=O)c3ccc(NC(=O)C(CC#N)NC(=O)c4ccc(NCc5ccc(-c6ccccc6)cc5)cc4)cc3)c(OC)c2O)ccc(C(=O)O)c1O (stereo not drawn) [Compound 44]
> 10 mm: [3] | [4] | [1] | [5] | [2]

COc1c(NC(=O)c2ccc(NC(=O)c3ccc(NC(=O)C(CC#N)NC(=O)c4ccc(NC(=O)c5ccco5)cc4)cc3)c(OC)c2O)ccc(C(=O)O)c1O (stereo not drawn) [Compound 15]
> 10 mm: [1]; [7] | [6] | [2]; [8]

COc1c(NC(=O)c2ccc(NC(=O)c3ccc(NC(=O)C(CC#N)NC(=O)c4ccc(NC(=O)c5ccc(O)cc5)cc4)cc3)c(OC)c2O)ccc(C(=O)O)c1O (stereo not drawn) [Compound 7]
> 10 mm: [1]; [7] | [6] | [5]; [8] | [2]; [8]

COc1c(NC(=O)c2ccc(NC(=O)c3ccc(NC(=O)C(CC#N)NC(=O)c4ccc(NC(=O)CCc5ccccn5)cc4)cc3)c(OC)c2O)ccc(C(=O)O)c1O (stereo not drawn) [Compound 29]
> 10 mm: [1]; [7] | [5]; [8] | [2]

COc1c(NC(=O)c2ccc(NC(=O)c3ccc(NC(=O)C(CC#N)NC(=O)c4ccc(NC(=O)/C(C)=C/c5ccccc5)cc4)cc3)c(OC)c2O)ccc(C(=O)O)c1O (stereo not drawn) [Compound 2]
> 10 mm: [3]; [8] | [4]; [9] | [1]; [7] | [6] | [5]; [8] | [2]; [8]

COc1c(NC(=O)c2ccc(NC(=O)c3ccc(NC(=O)C(CC#N)NC(=O)c4ccc(NC(=O)c5ccc(-c6ccccc6)cc5)cc4)cc3)c(OC)c2O)ccc(C(=O)O)c1O (stereo not drawn) [Compound 9]
> 10 mm: [3]; [8] | [4]; [9] | [1]; [7] | [6] | [2]; [8]

COc1ccc(C(=O)Nc2ccc(C(=O)NC(CC#N)C(=O)Nc3ccc(C(=O)Nc4ccc(C(=O)Nc5ccc(C(=O)O)c(O)c5OC)c(O)c4OC)cc3)cc2)cc1 (stereo not drawn) [Compound 10]
> 10 mm: [3]; [8] | [4]; [9] | [1]; [7] | [6] | [5]; [8] | [2]; [8]

COc1c(NC(=O)c2ccc(NC(=O)c3ccc(NC(=O)C(CC#N)NC(=O)c4ccc(NC(=O)Cc5ccc(Cl)cc5)cc4)cc3)c(OC)c2O)ccc(C(=O)O)c1O (stereo not drawn) [Compound 26]
> 10 mm: [1]; [7] | [5]; [8] | [2]

COc1c(NC(=O)c2ccc(NC(=O)c3ccc(NC(=O)C(CC#N)NC(=O)c4ccc(NC(=O)/C=C/c5ccccc5)cc4)cc3)c(OC)c2O)ccc(C(=O)O)c1O (stereo not drawn) [Compound 3]
> 10 mm: [3]; [8] | [4]; [9] | [1]; [7] | [6] | [5]; [8] | [2]; [8]

COc1c(NC(=O)c2ccc(NC(=O)c3ccc(NC(=O)C(CC#N)NC(=O)c4ccc(NC(=O)c5cccc(C(F)(F)F)c5)cc4)cc3)c(OC)c2O)ccc(C(=O)O)c1O (stereo not drawn) [Compound 12]
> 10 mm: [3]; [8] | [4]; [9] | [1]; [7] | [6] | [5]; [8] | [2]; [8]

COc1ccc(S(=O)(=O)Nc2ccc(C(=O)NC(CC#N)C(=O)Nc3ccc(C(=O)Nc4ccc(C(=O)Nc5ccc(C(=O)O)c(O)c5OC)c(O)c4OC)cc3)cc2)cc1 (stereo not drawn) [Compound 49]
> 10 mm: [2]

COc1c(NC(=O)c2ccc(NC(=O)c3ccc(NC(=O)C(CC#N)NC(=O)c4ccc(NC(=O)C5CC5)cc4)cc3)c(OC)c2O)ccc(C(=O)O)c1O (stereo not drawn) [Compound 38]
> 10 mm: [1]; [7] | [2]; [8]

COc1c(NC(=O)c2ccc(NC(=O)c3ccc(NC(=O)C(CC#N)NC(=O)c4ccc(NC(=O)c5ccc[nH]5)cc4)cc3)c(OC)c2O)ccc(C(=O)O)c1O (stereo not drawn) [Compound 14]
> 10 mm: [1]; [7] | [2]; [8]

CCCCCC(=O)Nc1ccc(C(=O)NC(CC#N)C(=O)Nc2ccc(C(=O)Nc3ccc(C(=O)Nc4ccc(C(=O)O)c(O)c4OC)c(O)c3OC)cc2)cc1 (stereo not drawn) [Compound 34]
> 10 mm: [3]; [8] | [1]; [7] | [6] | [5]; [8] | [2]

COc1c(NC(=O)c2ccc(NC(=O)c3ccc(NC(=O)C(CC#N)NC(=O)c4ccc(NC(=O)/C(C)=C/c5ccc(C(F)(F)F)cc5)cc4)cc3)c(OC)c2O)ccc(C(=O)O)c1O (stereo not drawn) [Compound 4]
> 10 mm: [3]; [8] | [4]; [9] | [1]; [7] | [6] | [5]; [8] | [2]; [8]

COc1c(NC(=O)c2ccc(NC(=O)c3ccc(NC(=O)C(CC#N)NC(=O)c4ccc(NC(=O)c5ccc(C#N)cc5)cc4)cc3)c(OC)c2O)ccc(C(=O)O)c1O (stereo not drawn) [Compound 11]
> 10 mm: [3]; [8] | [4]; [9] | [1]; [7] | [6] | [5]; [8] | [2]; [8]

COc1c(NC(=O)c2ccc(NC(=O)c3ccc(NC(=O)C(CC#N)NC(=O)c4ccc(NC(=O)c5ccc(N6CCOCC6)cc5)cc4)cc3)c(OC)c2O)ccc(C(=O)O)c1O (stereo not drawn) [Compound 8]
> 10 mm: [3]; [8] | [1]; [7] | [6] | [2]; [8]

COc1c(NC(=O)c2ccc(NC(=O)c3ccc(NC(=O)C(CC#N)NC(=O)c4ccc(NC(=O)c5cccc(-c6ccccc6)c5)cc4)cc3)c(OC)c2O)ccc(C(=O)O)c1O (stereo not drawn) [Compound 13]
> 10 mm: [3]; [8] | [4]; [9] | [1]; [7] | [5]; [8] | [2]; [8]

COc1c(NC(=O)c2ccc(NC(=O)c3ccc(NC(=O)C(CC#N)NC(=O)c4ccc(NC(=O)C(C)(C)C)cc4)cc3)c(OC)c2O)ccc(C(=O)O)c1O (stereo not drawn) [Compound 40]
> 10 mm: [1]; [7] | [2]; [8]

CCC(CC)C(=O)Nc1ccc(C(=O)NC(CC#N)C(=O)Nc2ccc(C(=O)Nc3ccc(C(=O)Nc4ccc(C(=O)O)c(O)c4OC)c(O)c3OC)cc2)cc1 (stereo not drawn) [Compound 39]
> 10 mm: [1]; [7] | [2]; [8]
